Experimental data from US10996215B2, “Methods for determining drug efficacy for the treatment of diffuse large B-cell lymphoma, multiple myeloma, and myeloid cancers” (CELGENE CORPORATION, priority 2013, dated 2021).
Residues, ends and D or L forms follow the SMILES beside them. *: point of attachment. Cbz = O=C(OCc1ccccc1)*

Key:
ZFP91, Aiolos = test: Western blot of ZFP91 and Aiolos in OCI-LY10 cells; assay type: cell-based; settings: for levels of ZFP91 and Aiolos: 6 hrs, 100 mM thalidomide, 10 mM lenalidomide, 1 mM pomalidomide, 1 μM or 10 μM Compound A, 100 nM Compound B, FIG. 17A
Text: (§1) Cells were harvested with RIPA buffer, and proteins from cell lysates were separated by 10% sodium dodecyl sulfate polyacrylamide (SDS-PAGE) gel electrophoresis (Bio-Rad), and transferred to PVDF membranes (Invitrogen). Immunoblots were probed with antibodies recognizing Aiolos (9-9-7; Celgene), CK1α(Abcam), GSPT1 (Sigma), ZFP91 (LSBio) and β-actin (Li-Cor). Signals were detected with a Li-Cor Odyssey imager.
Immunoblots were probed with antibodies recognizing Aiolos (9-9-7; Celgene), GSPT1 (Sigma), ZFP91 (LSBio) and β-actin (Li-Cor). Signals were detected with a Li-Cor Odyssey imager.
as §1, with “OCI-LY10 cells treated with DMSO or various drugs for 6 hrs. Cells” for “Cells”, “buffer” for “buffer,”, “recognizing:” for “recognizing”
OCI-LY10 cells were then treated with DMSO or various drugs for 6 hrs. […] Cells were harvested with RIPA buffer and Proteins from cell lysates were separated by 10% sodium dodecyl sulfate polyacrylamide (SDS-PAGE) gel electrophoresis (Bio-Rad), and transferred to PVDF membranes (Invitrogen). Immunoblots were probed with antibodies recognizing: Aiolos (9-9-7; Celgene), ZFP91 (LSBio), ZNF198 (LSBio) and β-actin (Li-Cor). Signals were detected with a Li-Cor™ Odyssey imager.
OCI-LY10 cells stably transduced with shCRBN 11 were induced for 48 hrs with either 0 or 10 ng/ml of doxycycline. […] Where MLN4924 treatments were present, MLN4924 was pre-incubated for 1 hr prior to drug treatment. Cells were harvested with RIPA buffer and Proteins from cell lysates were separated by 10% sodium dodecyl sulfate polyacrylamide (SDS-PAGE) gel electrophoresis (Bio-Rad), and transferred to PVDF membranes (Invitrogen). Immunoblots were probed with antibodies recognizing: CRBN-65, Aiolos (9-9-7; Celgene), Ikaros (Millipore), ZFP91 (LSBio) and β-actin (Li-Cor). Signals were detected with a Li-Cor Odyssey imager.

Aiolos, Ikaros, ZFP91 [1] = test: CRBN dependence of ZFP91 reduction in U266 cells, Western blot; assay type: cell-based; settings: for destruction of Aiolos, Ikaros, and ZFP91 (CRBN dependent pathway): 6 hour; for compound-induced reduction of Aiolos, Ikaros, and ZFP91 after inhibitor pretreatment: 10 mM MLN4924 or MG132 for 1 hr, then compounds 6 hr
Procedure: U266 cells were transduced with inducible shRNA constructs targeting CRBN or targeting luciferase as control. Cells were grown in the presence or in the absence of 10 ng/ml Doxycycline, and in the presence or in the absence of 1 μM pomalidomide. Cells were harvested and were treated in cell lysis buffer to generate cell lysates. Proteins from cell lysate were separated by gel electrophoresis and transferred to nitrocellulose membranes. Immunoblots were then probed with antibodies recognizing Aiolos, CRBN, Ikaros, ZFP91, IRF4, IFIT1, IFIT3, P-STAT1, and β-actin (Li-Cor).
Cells were harvested, and lysates were run on 10% SDS-PAGE and immunoblotted with the appropriate antibodies.
MG132 activates c-Jun N-terminal kinase (JNK1), which initiates apoptosis. […] MLN4924 is a NAE1 inhibitor that blocks the activity of Cullin Ring Ligases (CRLs), such as CRL4^CRBN. […] Cells were harvested and lysates were run on 10% SDS-PAGE, transferred to nitrocellulose and immunoblotted with the corresponding antibodies.

CSNK1A1 (CK1α), Ikaros = test: MG-132, MLN-4924 or Compound A pre-treatment, Western analysis in HNT-34 cells; assay type: cell-based; settings: for LEN-mediated CK1α reduction after inhibitor pretreatment: FIG. 27B
NF-κB activation = settings: cited from earlier work
Aiolos, Ikaros, ZFP91 [2] = test: Western blot in myeloma, lymphoma and primary B cells; assay type: cell-based; settings: U266, DF15, RPMI8226, OCI-LY10, WSU-DLCL2, WSU-DLCL2 Compound A resistant, primary B cells; 8 hours
Procedure: Multiple myeloma cells (U266, DF15, RPMI8226), diffuse large B cell lymphoma cells (OCI-LY10, WSU-DLCL2, WSU-DLCL2 Compound A resistant), and primary B cells were treated with DMSO, […] or […] for 8 hours. Cells were harvested and were treated in cell lysis buffer to generate cell lysates. Proteins from cell lysate were separated by gel electrophoresis (10% SDS-PAGE) and transferred to nitrocellulose membranes. Immunoblots were then probed with antibodies recognizing Aiolos, CRBN, Ikaros, ZFP91 (LSBio), IRF4, IRF7, Myc, and β-actin (Li-Cor).

IFN pathway = test: effect on IFN pathway (FIG. 13); assay type: cell-based
[3] = system: TMD8 (ABC) or Karpas 422 (GCB) cells; test: competition with lenalidomide for CRBN, 3H-thymidine proliferation; assay type: cell-based; settings: TMD8 or Karpas 422; co-treatment with 10 μM lenalidomide; competition of binding to the CRBN complex

O=C1CCC(N2C(=O)c3ccccc3C2=O)C(=O)N1 (stereo not shown) [thalidomide]
levels of ZFP91 and Aiolos (ZFP91, Aiolos; OCI-LY10): reduced
destruction of Aiolos, Ikaros, and ZFP91 (CRBN dependent pathway) (Aiolos, Ikaros, ZFP91 [1]): induced

CC(C)C[C@@H](C=O)NC(=O)[C@H](CC(C)C)NC(=O)[C@H](CC(C)C)NC(=O)OCc1ccccc1 [MG132] (Cbz-Leu-Leu-Leu-aldehyde)
compound-induced reduction of Aiolos, Ikaros, and ZFP91 after inhibitor pretreatment (Aiolos, Ikaros, ZFP91 [1]): blocked
CSNK1A1 protein levels in the presence of lenalidomide (CSNK1A1 (CK1α), Ikaros; 3 μM or 10 μM MG-132 pre-treatment 30 min): stabilized
LEN-mediated CK1α reduction after inhibitor pretreatment (CSNK1A1 (CK1α), Ikaros): abrogated
IC50 (NF-κB activation): 3000 nM

Nc1cccc2c1C(=O)N(C1CCC(=O)NC1=O)C2=O (stereo not shown) [pomalidomide]
levels of ZFP91 and Aiolos (ZFP91, Aiolos; OCI-LY10): reduced
levels of Aiolos, Ikaros, and ZFP91 (Aiolos, Ikaros, ZFP91 [2]): reduced
pomalidomide induced reductions of Aiolos, Ikaros, and ZFP91 when CRBN knocked down by shRNA (Aiolos, Ikaros, ZFP91 [1]; 1 μM pomalidomide, 10 ng/ml Doxycycline): blocked
destruction of Aiolos, Ikaros, and ZFP91 (CRBN dependent pathway) (Aiolos, Ikaros, ZFP91 [1]): induced
IFIT1, IFIT3, DDX58, XAF1, IFIH1, and OAS3 protein expression (IFN pathway; FIG. 13A): upregulates
DDX58, IFI27, IFIT1, IFIT3, DDX58, and XAF1 gene expression (IFN pathway; FIG. 13B): upregulates
ISG15 and OAS3 gene expression (IFN pathway; FIG. 13C): upregulates
IRF changes (IFN pathway; FIG. 13E): induces
IFIT1 and IFIT3 protein expression (IFN pathway; FIG. 13F): upregulates
IKKE protein level (IFN pathway; FIG. 13F): reduces
TBK1 phosphorylation (TBK1-PO4) (IFN pathway; FIG. 13F): upregulates
levels of STAT or phosphorylated STAT (IFN pathway; FIG. 13G): induces changes

O=C1CCC(N2Cc3c(OCc4ccc(CN5CCOCC5)cc4)cccc3C2=O)C(=O)N1 (stereo not shown) [Compound B, 3-[4-(4-Morpholin-4-ylmethyl-benzyloxy)-1-oxo-1,3-dihydro-isoindol-2-yl]-piperidine-2,6-dione]
levels of ZFP91 and Aiolos (ZFP91, Aiolos; OCI-LY10): reduced

NS(=O)(=O)OC[C@@H]1C[C@@H](n2ccc3c(N[C@H]4CCc5ccccc54)ncnc32)C[C@@H]1O [MLN4924]
level of both Aiolos and ZFP91 in drug-treated cells after MLN-4924 pre-treatment (ZFP91, Aiolos; OCI-LY10, 10 μM MLN-4924 1 hour prior to drug, FIG. 17C): restored
Aiolos and ZFP91 degradation in response to Compound A (ZFP91, Aiolos; OCI-LY10, 10 μM MLN-4924 pretreatment 1 hour, FIG. 14B): blocked
level of both Aiolos and ZFP91 in drug-treated cells after MLN-4924 pre-treatment (ZFP91, Aiolos; OCI-LY10 shCRBN 11, lenalidomide or Compound A 6 hours, MLN4924 1 hr pre-incubation, FIG. 17D): restored
compound-induced reduction of Aiolos, Ikaros, and ZFP91 after inhibitor pretreatment (Aiolos, Ikaros, ZFP91 [1]): blocked
LEN-mediated CK1α reduction after inhibitor pretreatment (CSNK1A1 (CK1α), Ikaros): abrogated

Cc1ccc(NC(=O)NCc2ccc3c(c2)CN(C2CCC(=O)NC2=O)C3=O)cc1Cl (stereo not shown) [Compound C, 1-(3-chloro-4-methylphenyl)-3-((2-(2,6-dioxopiperidin-3-yl)-1-oxoisoindolin-5-yl)methyl)urea]
anti-proliferative effects on co-treatment with lenalidomide [3]: blocks anti-proliferative effects of Compound C
